Assay results reported in US20260049088A1, “TRICYCLIC HETEROCYCLIC DERIVATIVES, COMPOSITIONS AND USES THEREOF” (Danatlas Pharmaceuticals Co., Ltd., priority 2023, published 2026).

The molecules below were run against T1, hPARG (Homo sapiens, UniProt Q86W56) (assay: PARG enzymatic activity assay (HTRF)). Settings: C-terminal His6-tag hPARG 65 pM, biotinylated-NAD ribosylated PARP1 substrate 8 nM.
T1 construct: made in house; host or cells: E. coli
Type: biochemical
How it was run: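 His6-tagged hPARG from E. coli (65 pM final) preincubated 60 min RT with compound (10-point 4-fold dilution), then 8 nM biotinylated NAD-ribosylated PARP1 added for 10 min RT in Tris pH 7.4 buffer with EDTA, EGTA, DTT, KCl. HTRF detection (Eu-streptavidin/anti-His XL665, 620/665 nm); IC50 from 4-parameter fit against DMSO and no-enzyme controls.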

T1 sequence (Q86W56 whole entry): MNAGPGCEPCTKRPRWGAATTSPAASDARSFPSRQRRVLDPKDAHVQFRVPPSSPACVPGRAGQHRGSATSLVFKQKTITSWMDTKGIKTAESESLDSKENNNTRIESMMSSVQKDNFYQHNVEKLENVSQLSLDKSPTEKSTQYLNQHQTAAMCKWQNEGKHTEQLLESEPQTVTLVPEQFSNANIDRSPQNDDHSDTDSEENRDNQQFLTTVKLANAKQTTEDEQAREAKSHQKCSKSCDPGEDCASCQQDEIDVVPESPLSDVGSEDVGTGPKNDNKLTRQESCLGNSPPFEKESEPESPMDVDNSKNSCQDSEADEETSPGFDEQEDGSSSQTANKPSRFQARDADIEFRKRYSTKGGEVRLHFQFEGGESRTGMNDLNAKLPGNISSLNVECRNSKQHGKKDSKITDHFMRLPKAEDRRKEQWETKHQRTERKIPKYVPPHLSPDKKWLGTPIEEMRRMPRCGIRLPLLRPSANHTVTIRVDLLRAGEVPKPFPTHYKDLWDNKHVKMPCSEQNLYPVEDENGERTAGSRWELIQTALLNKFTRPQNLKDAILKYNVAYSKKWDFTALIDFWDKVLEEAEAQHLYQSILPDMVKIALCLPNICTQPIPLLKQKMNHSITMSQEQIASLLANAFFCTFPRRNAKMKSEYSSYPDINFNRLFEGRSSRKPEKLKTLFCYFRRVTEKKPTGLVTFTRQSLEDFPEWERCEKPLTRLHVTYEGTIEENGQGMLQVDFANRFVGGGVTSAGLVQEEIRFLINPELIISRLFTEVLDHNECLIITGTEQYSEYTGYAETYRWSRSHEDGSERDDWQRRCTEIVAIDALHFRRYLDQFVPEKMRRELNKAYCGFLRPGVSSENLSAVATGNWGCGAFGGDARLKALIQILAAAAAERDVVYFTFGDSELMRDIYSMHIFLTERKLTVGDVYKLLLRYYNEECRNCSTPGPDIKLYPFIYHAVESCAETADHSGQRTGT

| Compound | IC50 |
| --- | --- |
| C[C@@H]1CCCN(c2ncnc3c2c2ccc(S(=O)(=O)NC4(C#N)CC4)cc2n3-c2nnc(C(F)F)s2)C1 [Example 81, (R)-N-(1-Cyanocyclopropyl)-9-(5-(difluoromethyl)-1,3,4-thiadiazol-2-yl)-4-(3-methylpiperidin-1-yl)-9H-pyrimido[4,5-b]indole-7-sulfonamide] | ≤ 100 nM |
| N#CC1(NS(=O)(=O)c2ccc3c4c(NC(=O)CN5CCOCC5)ncnc4n(-c4nnc(C(F)F)s4)c3c2)CC1 [Example 82, N-(7-(N-(1-Cyanocyclopropyl)sulfamoyl)-9-(5-(difluoromethyl)-1,3,4-thiadiazol-2-yl)-9H-pyrimido[4,5-b]indol-4-yl)-2-morpholinoacetamide] | ≤ 100 nM |
| N#CC1(NS(=O)(=O)c2ccc3c4c(SCCN5CCOCC5)ncnc4n(-c4nnc(C(F)F)s4)c3c2)CC1 [Example 83, N-(1-Cyanocyclopropyl)-9-(5-(difluoromethyl)-1,3,4-thiadiazol-2-yl)-4-((2-morpholinoethyl)thio)-9H-pyrimido[4,5-b]indole-7-sulfonamide] | 100 to 1000 nM |
| COCCSc1ncnc2c1c1ccc(S(=O)(=O)NC3(C#N)CC3)cc1n2-c1nnc(C(F)F)s1 [Example 84, N-(1-Cyanocyclopropyl)-9-(5-(difluoromethyl)-1,3,4-thiadiazol-2-yl)-4-((2-methoxyethyl)thio)-9H-pyrimido[4,5-b]indole-7-sulfonamide] | 100 to 1000 nM |
| N#CC1(NS(=O)(=O)c2ccc3c4c(/C=C/CN5CCOCC5)ncnc4n(-c4nnc(C(F)F)s4)c3c2)CC1 [Example 85, (E)-N-(1-Cyanocyclopropyl)-9-(5-(difluoromethyl)-1,3,4-thiadiazol-2-yl)-4-(3-morpholinoprop-1-en-1-yl)-9H-pyrimido[4,5-b]indole-7-sulfonamide] | ≤ 100 nM |
| N#CC1(NS(=O)(=O)c2ccc3c4c(C#CCN5CCOCC5)ncnc4n(-c4nnc(C(F)F)s4)c3c2)CC1 [Example 86, N-(1-Cyanocyclopropyl)-9-(5-(difluoromethyl)-1,3,4-thiadiazol-2-yl)-4-(3-morpholinoprop-1-yn-1-yl)-9H-pyrimido[4,5-b]indole-7-sulfonamide] | ≤ 100 nM |
| N#CC1(NS(=O)(=O)c2ccc3c4c(CCCN5CCOCC5)ncnc4n(-c4nnc(C(F)F)s4)c3c2)CC1 [Example 87, N-(1-Cyanocyclopropyl)-9-(5-(difluoromethyl)-1,3,4-thiadiazol-2-yl)-4-(3-morpholinopropyl)-9H-pyrimido[4,5-b]indole-7-sulfonamide] | ≤ 100 nM |
| CC(C)(O)C#Cc1ncnc2c1c1ccc(S(=O)(=O)NC3(C#N)CC3)cc1n2-c1nnc(C(F)F)s1 [Example 88, N-(1-Cyanocyclopropyl)-9-(5-(difluoromethyl)-1,3,4-thiadiazol-2-yl)-4-(3-hydroxy-3-methylbut-1-yn-1-yl)-9H-pyrimido[4,5-b]indole-7-sulfonamide] | ≤ 100 nM |
| CC(C)(O)CCc1ncnc2c1c1ccc(S(=O)(=O)NC3(C#N)CC3)cc1n2-c1nnc(C(F)F)s1 [Example 89, N-(1-Cyanocyclopropyl)-9-(5-(difluoromethyl)-1,3,4-thiadiazol-2-yl)-4-(3-hydroxy-3-methylbutyl)-9H-pyrimido[4,5-b]indole-7-sulfonamide] | 100 to 1000 nM |
| CN1CCOCC1COc1ncnc2c1c1ccc(S(=O)(=O)NC3(C#N)CC3)cc1n2-c1nnc(C(F)F)s1 (centres unmarked) [Example 90, N-(1-Cyanocyclopropyl)-9-(5-(difluoromethyl)-1,3,4-thiadiazol-2-yl)-4-((4-methylmorpholin-3-yl)methoxy)-9H-pyrimido[4,5-b]indole-7-sulfonamide] | 100 to 1000 nM |
| N#CC1(NS(=O)(=O)c2ccc3c4c(OCCN5CCCS5(=O)=O)ncnc4n(-c4nnc(C(F)F)s4)c3c2)CC1 [Example 91, N-(1-Cyanocyclopropyl)-9-(5-(difluoromethyl)-1,3,4-thiadiazol-2-yl)-4-(2-(1,1-dioxidoisothiazolidin-2-yl)ethoxy)-9H-pyrimido[4,5-b]indole-7-sulfonamide] | ≤ 100 nM |
